Molecules are shown by their SMILES. Some results are limits rather than exact numbers.

For the test, the target named is His-tagged recombinant human TrkA (Homo sapiens (Human), UniProt P04629). The test can be described thus: TrkA LanthaScreen Eu Kinase Binding Assay. The conditions noted are these: averaged IC50; TR-FRET binding, 60 min, 22° C.; read-out: TrkA Enzyme IC50. A digest of the protocol: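 Three-fold compound dilutions (2% DMSO final) were incubated 60 min at 22° C. with 5 nM His-TrkA cytoplasmic domain, tracer 236 (4 nM), biotinylated anti-His (2 nM) and europium streptavidin (2 nM) in MOPS pH 7.5 buffer. Emission ratio 665/615 gave percent of control; four-parameter fit yielded IC50.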
Sequence of His-tagged recombinant human TrkA (P04629 440-796): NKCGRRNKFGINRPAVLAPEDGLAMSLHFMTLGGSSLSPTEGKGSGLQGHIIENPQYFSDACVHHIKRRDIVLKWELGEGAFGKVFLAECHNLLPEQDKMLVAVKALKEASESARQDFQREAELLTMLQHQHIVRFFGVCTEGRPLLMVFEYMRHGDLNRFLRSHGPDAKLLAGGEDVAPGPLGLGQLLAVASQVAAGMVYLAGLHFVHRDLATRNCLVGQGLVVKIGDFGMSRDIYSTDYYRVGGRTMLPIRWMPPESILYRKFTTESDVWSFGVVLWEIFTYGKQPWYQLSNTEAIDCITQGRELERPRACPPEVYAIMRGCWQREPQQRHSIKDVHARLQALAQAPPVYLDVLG
A general note: Time-resolved FRET reads energy transfer from a long-lived donor to a nearby acceptor.
As usually defined, the IC50 is the concentration that inhibits the measured activity by half. Turning to `CCOc1nn(-c2ccccc2)c(NC(=O)NC2CCc3ccccc32)c1C` (stereo not drawn) [Example 53, 1-(2,3-dihydro-1H-inden-1-yl)-3-(3-ethoxy-4-methyl-1-phenyl-1H-pyrazol-5-yl)urea], the IC50 was 100 to 1000 nM. With `CCOc1nn(-c2ccccc2)c(NC(=O)N[C@H]2CCc3ccccc32)c1C` [Example 54, (S)-1-(2,3-dihydro-1H-inden-1-yl)-3-(3-ethoxy-4-methyl-1-phenyl-1H-pyrazol-5-yl)urea] the figure was 100 to 1000 nM; with `CNC(=O)c1nn(-c2ccccc2)c(NC(=O)N[C@@H]2c3ccccc3C3(CC3)[C@H]2O)c1C` [Example 59, 215-(3-(trans-2′-hydroxy-2′,3′-dihydrospiro[cyclopropane-1,1′-inden]-3′-yl)ureido)-N,4-dimethyl-1-phenyl-1H-pyrazole-3-carboxamide], less than 100 nM. As for `Cc1c(-c2cnn(C)c2)nn(-c2ccccc2)c1NC(=O)N[C@@H]1c2ccccc2C[C@H]1O` [Example 65, 1-(1′,4-dimethyl-1-phenyl-1H,1′H-[3,4′-bipyrazol]-5-yl)-3-((1R,2R)-2-hydroxy-2,3-dihydro-1H-inden-1-yl)urea], the IC50 was less than 100 nM. Then `Cc1ncc(-c2nn(-c3ccccc3)c(NC(=O)N[C@@H]3c4ccccc4C[C@H]3O)c2C)cn1` [Example 66, 1-((1R,2R)-2-hydroxy-2,3-dihydro-1H-inden-1-yl)-3-(4-methyl-3-(2-methylpyrimidin-5-yl)-1-phenyl-1H-pyrazol-5-yl)urea], with less than 100 nM; and `CCOc1ncc(-c2nn(-c3ccccc3)c(NC(=O)N[C@@H]3c4ccccc4C[C@H]3O)c2C)cn1` [Example 67, 1-(3-(2-ethoxypyrimidin-5-yl)-4-methyl-1-phenyl-1H-pyrazol-5-yl)-3-((1R,2R)-2-hydroxy-2,3-dihydro-1H-inden-1-yl)urea], with less than 100 nM. On to `COc1ncc(-c2nn(-c3ccccc3)c(NC(=O)N[C@@H]3c4ccccc4C[C@H]3O)c2C)cn1` [Example 68, 1-((1R,2R)-2-hydroxy-2,3-dihydro-1H-inden-1-yl)-3-(3-(2-methoxypyrimidin-5-yl)-4-methyl-1-phenyl-1H-pyrazol-5-yl)urea], for which the IC50 was less than 100 nM.

As for `Cc1c(-c2cc(C)c(=O)n(C)c2)nn(-c2ccccc2)c1NC(=O)N[C@@H]1c2ccccc2C[C@H]1O` [Example 69, 1-(3-(1,5-dimethyl-6-oxo-1,6-dihydropyridin-3-yl)-4-methyl-1-phenyl-1H-pyrazol-5-yl)-3-((1R,2R)-2-hydroxy-2,3-dihydro-1H-inden-1-yl)urea], the 50% inhibitory concentration (IC50) was less than 100 nM.

As for `Cc1c(-c2cnn(C)c2)nn(-c2ccccc2)c1NC(=O)N[C@@H]1c2cc(Cl)ccc2C[C@H]1O` [Example 70, 1-((1,2-trans)-6-chloro-2-hydroxy-2,3-dihydro-1H-inden-1-yl)-3-(1′,4-dimethyl-1-phenyl-1H,1′H-[3,4′-bipyrazol]-5-yl)urea], the IC50 is less than 100 nM. With `Cc1ncc(-c2nn(-c3ccccc3)c(NC(=O)N[C@@H]3c4cc(Cl)ccc4C[C@H]3O)c2C)cn1` [Example 71, 1-((1,2-trans)-6-chloro-2-hydroxy-2,3-dihydro-1H-inden-1-yl)-3-(4-methyl-3-(2-methylpyrimidin-5-yl)-1-phenyl-1H-pyrazol-5-yl)urea] the figure was less than 100 nM; with `Cc1c(-c2cnn(C)c2)nn(-c2ccccc2)c1NC(=O)N[C@@H]1c2ccccc2C(C)(C)[C@H]1O` [Example 72], less than 100 nM; with `Cc1ncc(-c2nn(-c3ccccc3)c(NC(=O)N[C@@H]3c4ccccc4C(C)(C)[C@H]3O)c2C)cn1` [Example 73, 1-((1,2-trans)-2-hydroxy-3,3-dimethyl-2,3-dihydro-1H-inden-1-yl)-3-(4-methyl-3-(2-methylpyrimidin-5-yl)-1-phenyl-1H-pyrazol-5-yl)urea], less than 100 nM. As to `Cc1c(OC[C@H]2CN(C)CCO2)nn(-c2ccccc2)c1NC(=O)N[C@@H]1c2ccccc2C(C)(C)C[C@H]1O` [Example 74, 1-((1R,2R)-2-hydroxy-4,4-dimethyl-1,2,3,4-tetrahydronaphthalen-1-yl)-3-(4-methyl-3-(((R)-4-methylmorpholin-2-yl)methoxy)-1-phenyl-1H-pyrazol-5-yl)urea], the IC50 was less than 100 nM.

Turning to `Cc1c(OC[C@H]2CN(C)CCO2)nn(-c2ccccc2)c1NC(=O)N[C@H]1c2ccccc2C(C)(C)C[C@@H]1O` [Example 75, 1-((1S,2S)-2-hydroxy-4,4-dimethyl-1,2,3,4-tetrahydronaphthalen-1-yl)-3-(4-methyl-3-(((R)-4-methylmorpholin-2-yl)methoxy)-1-phenyl-1H-pyrazol-5-yl)urea], the IC50 is less than 100 nM. Then `Cc1c(OC[C@@H]2CN(C)CCO2)nn(-c2ccccc2)c1NC(=O)N[C@@H]1c2ccccc2C(C)(C)C[C@H]1O` [Example 76, 1-((1R,2R)-2-hydroxy-4,4-dimethyl-1,2,3,4-tetrahydronaphthalen-1-yl)-3-(4-methyl-3-(((S)-4-methylmorpholin-2-yl)methoxy)-1-phenyl-1H-pyrazol-5-yl)urea], with less than 100 nM; and `Cc1c(OC[C@H]2CN(C)CCO2)nn(-c2ccccc2)c1NC(=O)NC1c2cc(F)c(F)cc2C(C)(C)C[C@H]1O` (stereo partly drawn) [Example 77, 1-(trans-6,7-difluoro-2-hydroxy-4,4-dimethyl-1,2,3,4-tetrahydronaphthalen-1-yl)-3-(4-methyl-3-(((R)-4-methylmorpholin-2-yl)methoxy)-1-phenyl-1H-pyrazol-5-yl)urea], with less than 100 nM. On to `Cc1c(OC[C@H]2CN(C)CCO2)nn(-c2ccccc2)c1NC(=O)NC1c2ccccc2C2(CC2)[C@@H]1O` (stereo partly drawn) [Example 78, 1-(trans-2′-hydroxy-2,3′-dihydrospiro[cyclopropane-1,1′-inden]-3′-yl)-3-(4-methyl-3-(((R)-4-methylmorpholin-2-yl)methoxy)-1-phenyl-1H-pyrazol-5-yl)urea], for which the 50% inhibitory concentration (IC50) was less than 100 nM. Then `CNC(=O)c1nn(-c2ccccc2)c(NC(=O)N[C@@H]2c3cc(F)c(F)cc3C(C)(C)C[C@H]2O)c1C` [Example 79, 5-(3-((1,2-trans)-6,7-difluoro-2-hydroxy-4,4-dimethyl-1,2,3,4-tetrahydronaphthalen-1-yl)ureido)-N,4-dimethyl-1-phenyl-1H-pyrazole-3-carboxamide], with less than 100 nM. Consider `Cc1c(-c2cnn(C)c2)nn(-c2ccccc2)c1NC(=O)N[C@@H]1c2cc(F)c(F)cc2C(C)(C)C[C@H]1O` [Example 80, 1-((1,2-trans)-6,7-difluoro-2-hydroxy-4,4-dimethyl-1,2,3,4-tetrahydronaphthalen-1-yl)-3-(1′,4-dimethyl-1-phenyl-1H,1′H-[3,4′-bipyrazol]-5-yl)urea], for which the IC50 is less than 100 nM. Then `Cc1c(OCC2CCN(C)CC2)nn(-c2ccccc2)c1NC(=O)N[C@@H]1c2cc(F)c(F)cc2C(C)(C)C[C@H]1O` [Example 81, 1-((1,2-trans)-6,7-difluoro-2-hydroxy-4,4-dimethyl-1,2,3,4-tetrahydronaphthalen-1-yl)-3-(4-methyl-3-((1-methylpiperidin-4-yl)methoxy)-1-phenyl-1H-pyrazol-5-yl)urea], with less than 100 nM; and `COc1nn(-c2ccccc2)c(NC(=O)N[C@@H]2c3cc(F)c(F)cc3C(C)(C)C[C@H]2O)c1C` [Example 82, 1-((1,2-trans)-6,7-difluoro-2-hydroxy-4,4-dimethyl-1,2,3,4-tetrahydronaphthalen-1-yl)-3-(3-methoxy-4-methyl-1-phenyl-1H-pyrazol-5-yl)urea], with less than 100 nM; and `Cc1c(-c2ccc(=O)n(C)c2)nn(-c2ccccc2)c1NC(=O)N[C@@H]1c2cc(F)c(F)cc2C(C)(C)C[C@H]1O` [Example 83, 1-((1,2-trans)-6,7-difluoro-2-hydroxy-4,4-dimethyl-1,2,3,4-tetrahydronaphthalen-1-yl)-3-(4-methyl-3-(1-methyl-6-oxo-1,6-dihydropyridin-3-yl)-1-phenyl-1H-pyrazol-5-yl)urea], with less than 100 nM.

Take `Cc1ncc(-c2nn(-c3ccccc3)c(NC(=O)N[C@@H]3c4cc(F)c(F)cc4C(C)(C)C[C@H]3O)c2C)cn1` [Example 84, 1-((1,2-trans)-6,7-difluoro-2-hydroxy-4,4-dimethyl-1,2,3,4-tetrahydronaphthalen-1-yl)-3-(4-methyl-3-(2-methylpyrimidin-5-yl)-1-phenyl-1H-pyrazol-5-yl)urea]: the IC50 was less than 100 nM. As to `CNC(=O)c1nn(-c2ccccc2)c(NC(=O)N[C@@H]2c3ccccc3C(C)(C)[C@@H](OC)[C@H]2O)c1C` [Example 85, 5-(3-((r-1,t-2,t-3)-2-hydroxy-3-methoxy-4,4-dimethyl-1,2,3,4-tetrahydronaphthalen-1-yl)ureido)-N,4-dimethyl-1-phenyl-1H-pyrazole-3-carboxamide], the IC50 is less than 100 nM. With `CO[C@H]1[C@@H](O)[C@H](NC(=O)Nc2c(C)c(-c3cnn(C)c3)nn2-c2ccccc2)c2ccccc2C1(C)C` [Example 86, 1-(1′,4-dimethyl-1-phenyl-1H,1′H-[3,4′-bipyrazol]-5-yl)-3-((r-1,t-2,t-3)-2-hydroxy-3-methoxy-4,4-dimethyl-1,2,3,4-tetrahydronaphthalen-1-yl)urea], the IC50 was less than 100 nM. With `CO[C@H]1[C@@H](O)[C@H](NC(=O)Nc2c(C)c(OCC3CCN(C)CC3)nn2-c2ccccc2)c2ccccc2C1(C)C` [Example 87, 1-((r-1,t-2,t-3)-2-hydroxy-3-methoxy-4,4-dimethyl-1,2,3,4-tetrahydronaphthalen-1-yl)-3-(4-methyl-3-((1-methylpiperidin-4-yl)methoxy)-1-phenyl-1H-pyrazol-5-yl)urea] the figure was less than 100 nM; with `CNC(=O)c1nn(-c2ccccc2)c(NC(=O)N[C@@H]2c3ccc(F)cc3C(C)(C)C[C@H]2O)c1C` [Example 88, 5-(3-((1,2-trans)-6-fluoro-2-hydroxy-4,4-dimethyl-1,2,3,4-tetrahydronaphthalen-1-yl)ureido)-N,4-dimethyl-1-phenyl-1H-pyrazole-3-carboxamide], less than 100 nM.

The values above are taken from patent publication US10351575B2, “Bicyclic urea, thiourea, guanidine and cyanoguanidine compounds useful for the treatment of pain” (Array BioPharma Inc., priority 2012, dated 2019).
